# Source: PMC9639148 (Journal for Immunotherapy of Cancer, 2022)
# Key:
# [1] = tested on: APOBEC3; assay: Mouse whole exome sequencing of esophagus tissues; format: in vivo
# [2] = tested on: KYSE70 cells; assay: Transcriptome sequencing of KYSE70 cells; format: cell-based, human; conditions: 10 µM for 48 hours
# [3] = In vivo toxicity analysis, AOM/DSS-induced colon cancer mice; set-up: species or system mouse; conditions: 0.5 mg/kg each i.p.
# [4] = tested on: HET-1A cells; assay: Cell viability assay; format: cell-based, human; conditions: MTT, 24, 48 and 72 hours
# [5] = In vivo toxicity analysis, 4-NQO-induced ESCC mice; set-up: species or system mouse
# [6] = target: T1, APOBEC3B (Homo sapiens, UniProt Q9UH17); assay: Microscale thermophoresis; format: binding
# [7] = target: T2, APOBEC3A (Homo sapiens, UniProt P31941); assay: biochemical; conditions: read-out: inhibition rate of APOBEC3A deaminase activity
# [8] = target: T1, APOBEC3B; format: biochemical
# [9] = target: T2, APOBEC3A; assay: MST, APOBEC3A protein; format: binding
# [10] = target: T1, APOBEC3B; assay: Fluorescence-based ssDNA cytosine deamination assay; format: biochemical; conditions: IC50, dose-dependent assay, figure 2D, E
# [11] = tested on: APOBEC3B overexpressed E. coli; assay: Bacterial resequencing; format: cell-based, Escherichia coli; conditions: 2 µM for 3 days
# [12] = tested on: IL-7 and IL-15; assay: qRT-PCR of IL-7 and IL-15 in KYSE70 cells; format: cell-based, human; conditions: 10 µM
# [13] = tested on: IL-15; assay: ELISA, IL-15 in KYSE70 supernatants; format: cell-based, human; conditions: 10 µM, 48 hours, vs vehicle supernatants
# [14] = 0.5, 2 and 8 mg/kg i.p. every 2 days for 2 weeks
# [15] = target: T3, APOBEC3G (Homo sapiens, UniProt Q9HC16); assay: biochemical; conditions: read-out: inhibition rate of APOBEC3G deaminase activity
# [16] = tested on: IFN-γ^+CD8^+ T cells; assay: Ex vivo intracellular cytokine staining, AOM/DSS-induced colon cancer mice; format: in vivo, mouse; conditions: 0.5 mg/kg each i.p.
# [17] = tested on: IFN-γ^+CD8^+ T cells; assay: Ex vivo intracellular cytokine staining, 4-NQO-induced ESCC mice; format: in vivo, mouse; conditions: 0.5 mg/kg each i.p.
# [18] = tested on: PD-L1 in KYSE70 cell; assay: PD-L1 expression by flow cytometry, KYSE70; format: cell-based, human; conditions: 10 µM and 100 µM, 48 hours
# [19] = tested on: CD8^+ T cells; assay: Activated human PBMCs directly treated; format: cell-based; conditions: 10 µM for 3 days
# [20] = tested on: CD8+ T cells; assay: T cell migration assay; format: cell-based, human; conditions: supernatant of KYSE70 pretreated with 10 μM for 48 hours
# [21] = Thyroid function in vivo, naive C57BL/6J mice; set-up: species or system mouse; conditions: 0.5, 2 and 8 mg/kg i.p. every 2 days for 2 weeks, vs NS group
# [22] = tested on: 4-NQO-induced ESCC; assay: 4-NQO-induced spontaneous ESCC mouse model; format: in vivo
# [23] = target: T3, APOBEC3G; assay: MST, APOBEC3G protein; format: binding
# [24] = tested on: KYSE70 cells; assay: Cell viability assay; format: cell-based, human; conditions: 0.01-100 μM, MTT
# [25] = tested on: APOBEC3B; assay: qRT-PCR of APOBEC3B mRNA in KYSE70 cells; format: cell-based, human; conditions: 48 hours
# [26] = tested on: IL-7; assay: ELISA, IL-7 in KYSE70 supernatants; format: cell-based, human; conditions: 10 µM, 48 hours, vs vehicle supernatants; IL-7 expression level was too low
# [27] = tested on: PD-L1 in RKO cell; assay: PD-L1 expression by flow cytometry, RKO; format: cell-based, human; conditions: 48 hours
# [28] = tested on: CD8^+ T cells; assay: Coculture assay: PBMCs cultured in supernatants of KYSE70 cells; format: cell-based, human; conditions: supernatants of KYSE70 cells pretreated with 10 µM for 48 hours, PBMCs 3 days
# [29] = tested on: KYSE150-vector cells; assay: MST within KYSE150-vector cells
# [30] = target: KYSE150-APOBEC3B cells (Homo sapiens, UniProt Q9UH17); assay: MST within KYSE150-APOBEC3B cells; format: binding
# [31] = tested on: AOM/DSS-induced colon cancer; assay: AOM/DSS-induced spontaneous colon cancer mouse model; format: in vivo
# [32] = tested on: CD8^+ T cells; assay: Activated PBMCs cocultured with KYSE70 cells; format: cell-based, human; conditions: 10 µM, coculture with KYSE70 cells
# [33] = both low (0.5 mg/kg) and high dose (2 mg/kg) i.p.
# T1 sequence (Q9UH17 whole entry): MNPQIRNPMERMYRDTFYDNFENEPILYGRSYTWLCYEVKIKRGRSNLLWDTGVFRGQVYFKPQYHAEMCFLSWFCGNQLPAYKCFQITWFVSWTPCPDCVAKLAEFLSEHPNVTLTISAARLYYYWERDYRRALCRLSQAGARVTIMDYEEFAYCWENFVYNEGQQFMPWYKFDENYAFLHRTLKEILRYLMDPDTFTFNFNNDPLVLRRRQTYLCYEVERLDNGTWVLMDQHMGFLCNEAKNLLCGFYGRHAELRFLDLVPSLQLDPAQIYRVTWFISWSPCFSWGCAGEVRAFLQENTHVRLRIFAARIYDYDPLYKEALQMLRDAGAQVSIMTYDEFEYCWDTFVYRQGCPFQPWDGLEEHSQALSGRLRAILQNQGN
# T2 sequence (P31941 whole entry): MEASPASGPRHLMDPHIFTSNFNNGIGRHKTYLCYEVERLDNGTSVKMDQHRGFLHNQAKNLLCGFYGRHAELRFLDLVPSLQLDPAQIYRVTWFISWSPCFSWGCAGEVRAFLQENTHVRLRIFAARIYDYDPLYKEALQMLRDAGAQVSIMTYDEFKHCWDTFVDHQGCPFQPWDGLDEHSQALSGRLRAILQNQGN
# T3 sequence (Q9HC16 whole entry): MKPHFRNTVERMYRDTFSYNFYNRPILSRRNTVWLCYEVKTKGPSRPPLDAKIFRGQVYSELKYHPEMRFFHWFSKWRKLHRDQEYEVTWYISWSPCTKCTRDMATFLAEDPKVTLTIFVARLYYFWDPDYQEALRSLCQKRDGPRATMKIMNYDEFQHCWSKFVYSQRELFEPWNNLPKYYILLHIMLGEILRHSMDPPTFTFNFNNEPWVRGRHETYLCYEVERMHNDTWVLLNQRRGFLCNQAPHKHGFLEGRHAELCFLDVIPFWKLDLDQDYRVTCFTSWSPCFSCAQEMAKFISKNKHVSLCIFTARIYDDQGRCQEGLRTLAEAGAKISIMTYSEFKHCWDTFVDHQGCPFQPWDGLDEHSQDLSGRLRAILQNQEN
# Sequence of KYSE150-APOBEC3B cells (Q9UH17 whole entry): as the sequence (Q9UH17 whole entry) above
smiles,measurement,setting,value
"N[C@@H](Cc1cc(I)c(O)c(I)c1)C(=O)O [SMC247, 3,5-diiodotyrosine]",C>A mutation type,[1]; 0.5 mg/kg i.p.,reduction
same,contribution of APOBEC activity related signatures (SBS2 and SBS13),[1]; 0.5 mg/kg i.p.,weakened
same,mutation counts of C>T and C>G,[1]; 0.5 mg/kg i.p.,reduced
same,number of mutations at exome levels,"[1]; 0.5 mg/kg i.p. every 2 days for 2 weeks, vs NS",significantly reduced
same,IL-7 and IL-15 expression (transcriptome sequencing),[2],significantly upregulated
same,"toxic effects (H&E of organs, AST and ALT)",[3],no obvious toxic effects
same,viability of HET-1A cells,[4],did not affect the viability
same,AST and ALT in serum,[5]; 0.5 mg/kg vs NS group,no significant differences
same,H&E staining of main viscera,"[5]; heart, liver, spleen, lung, kidney",no obvious toxic effects
same,Kd,[6],65 nM
same,inhibition at 100 µM,[7],< 50%
same,deaminase activity of APOBEC3B,[8],significantly inhibited
same,product amount,[8],reduced in a dose-dependent manner
same,binding to APOBEC3A,[9],weakly bound
same,IC50,[10],1690 nM
same,C>T transversion driven by APOBEC3B in E. coli genome,[11],significant reduced
same,IL-7 and IL-15 expression levels (qRT-PCR),[12],consistent with the above sequencing results
same,secretion level of IL-15,[13],significantly greater
same,"blood routine indexes (WBC, HGB, PLT, RBC) and blood biochemical (AST and ALT) indexes",[14],within the normal range
same,inhibition at 100 µM,[15],< 50%
same,proportions of IFN-γ^+CD8^+ T cells in both spleen and lymph node,[16],increased
same,proportions of IFN-γ^+CD8^+ T cells in both spleen and lymph node,[17],increased
same,expression of PD-L1,[18],up-regulate
same,function of CD8^+ T cells in the absence of tumor cells,[19],did not directly affect the function of CD8^+ T cells
same,migration of CD8^+ T cells,[20],could not promote the migration
same,"thyroid-stimulating hormone, free triiodothyronine (fT3) and free thyroxine (fT4)",[21],no significant difference
same,number and length of ESCC tumor tissue,"[22]; 0.5 mg/kg or 2 mg/kg i.p. every 2 days for 2 weeks, vs NS",significantly reduced
same,body weight,[22]; [33],slow down the loss trend of body weight
same,overall survival of mice,[22]; [33],significantly prolong
same,H&E of esophagus tissues,[22]; combination study,effectively alleviated
same,number and length of ESCC tumor tissues,"[22]; combination study, 0.5 mg/kg each i.p. every 2 days for 2 weeks",significantly reduced
same,binding to APOBEC3G,[23],weakly bound
same,proliferation of KYSE70 cells,[24],could not inhibit the proliferation
same,expression of APOBEC3B,[25],down-regulated
same,secretion level of IL-7,[26],significantly greater
same,expression of PD-L1,[27],up-regulate
same,promotion effect on CD8^+ T cells,[28],still existed
same,affinity to KYSE150-vector cells,[29],no affinity
same,Kd,[30],6140 ± 7930 nM
same,H&E of colon tissue,[31]; 0.5 mg/kg each i.p.,the colonic mucosa was intact and the glandular cells were basically arranged in order
same,disease activity index (DAI),[31]; 0.5 mg/kg each i.p.,decreased
same,length of colon,[31]; 0.5 mg/kg each i.p.,without changing the length of colon basically
same,number and size of tumors in colonic epithelial tissues,[31]; 0.5 mg/kg each i.p.,significantly reduced
same,body weight loss,[31]; 0.5 mg/kg each i.p. every 2 days for 9 weeks,significantly slow down the trend of body weight loss
same,enteritis phenomenon,"[31]; mouse, in vivo",significantly relieved
same,proliferation of CD8^+ T cells and proportion of IFN-γ^+CD8^+ T cells,[32],promoted
